Results published in PubChem BioAssay AID248 (DTP/NCI, 2004).
Inconclusive results and toxic doses are left out.

Test system: L1210 leukemia ip in BDF1 mice, survival T/C
Experiment: NCI In Vivo Anticancer Drug Screen. Data for tumor model L1210 Leukemia (intraperitoneal) in B6D2F1 (BDF1) mice
Conditions: endpoint: mean survival time, higher = longer survival
Method in brief: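 Mice bearing the transplanted tumor received compound or vehicle. Survival of the treated group was divided by that of the vehicle-treated control group to give the ratio.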

Q: With `CN(Cc1cnc2nc(N)nc(N)c2n1)c1c(Cl)cc(C(=O)NC(CCC(=O)O)C(=O)O)cc1Cl` (stereo not drawn) as the molecule, how does the T/C (dose: 0.05 mg/kg/injection, schedule: Q03HX024 (ip), vehicle: alkali diluted with saline) read?
A: 108 % of control

Q: And the T/C (dose: 0.12 mg/kg/injection, schedule: Q01DX Z (ip), vehicle: saline)?
A: 103 % of control

Q: What about the T/C (dose: 0.2 mg/kg/injection, schedule: Q03HX024 (ip), vehicle: alkali diluted with saline) of the same molecule?
A: 121 % of control

Q: What about the T/C (dose: 0.31 mg/kg/injection, schedule: Q03HX008 (ip), vehicle: carboxymethylcellulose (CMC)) of the same molecule?
A: 114 % of control

Q: And the T/C (dose: 0.39 mg/kg/injection, schedule: Q03HX024 (ip), vehicle: carboxymethylcellulose (CMC))?
A: 111 % of control

Q: What about the T/C (dose: 0.5 mg/kg/injection, schedule: Q01DX Z (ip), vehicle: saline) of the same molecule?
A: 106 % of control

Q: What about the T/C (dose: 0.5 mg/kg/injection, schedule: Q01DX Z (sc), vehicle: alkali diluted with saline) of the same molecule?
A: 102 % of control

Q: And the T/C (dose: 0.6 mg/kg/injection, schedule: Q## X008 (ip), vehicle: alkali diluted with saline)?
A: 106 % of control

Q: And the T/C (dose: 0.63 mg/kg/injection, schedule: Q03HX008 (ip), vehicle: carboxymethylcellulose (CMC))?
A: 119 % of control

Q: And the T/C (dose: 0.78 mg/kg/injection, schedule: Q03HX024 (ip), vehicle: carboxymethylcellulose (CMC))?
A: 114 % of control

Q: What about the T/C (dose: 1.0 mg/kg/injection, schedule: Q01DX Z (im), vehicle: alkali diluted with saline) of the same molecule?
A: 107 % of control

Q: And the T/C (dose: 1.0 mg/kg/injection, schedule: Q01DX Z (ip), vehicle: saline)?
A: 122 % of control

Q: What about the T/C (dose: 1.0 mg/kg/injection, schedule: Q01DX Z (sc), vehicle: alkali diluted with saline) of the same molecule?
A: 95 % of control

Q: And the T/C (dose: 2.5 mg/kg/injection, schedule: Q01DX005 (ip), vehicle: carboxymethylcellulose (CMC))?
A: 117 % of control

Q: What about the T/C (dose: 2.5 mg/kg/injection, schedule: Q01DX Z (im), vehicle: alkali diluted with saline) of the same molecule?
A: 102 % of control

Q: And the T/C (dose: 2.5 mg/kg/injection, schedule: Q01DX Z (sc), vehicle: alkali diluted with saline)?
A: 106 % of control

Q: And the T/C (dose: 3.0 mg/kg/injection, schedule: Q01DX Z (ip), vehicle: carboxymethylcellulose (CMC))?
A: 159 % of control

Q: And the T/C (dose: 3.0 mg/kg/injection, schedule: Q01DX Z (ip), vehicle: saline)?
A: 169 % of control

Q: And the T/C (dose: 4.0 mg/kg/injection, schedule: Q## X008 (ip), vehicle: alkali diluted with saline)?
A: 104 % of control

Q: What about the T/C (dose: 5.0 mg/kg/injection, schedule: Q01DX005 (ip), vehicle: carboxymethylcellulose (CMC)) of the same molecule?
A: 120 % of control

Q: What about the T/C (dose: 5.0 mg/kg/injection, schedule: Q01DX009 (ip), vehicle: carboxymethylcellulose (CMC)) of the same molecule?
A: 121 % of control

Q: What about the T/C (dose: 5.0 mg/kg/injection, schedule: Q01DX009 (sc), vehicle: carboxymethylcellulose (CMC)) of the same molecule?
A: 115 % of control

Q: And the T/C (dose: 5.0 mg/kg/injection, schedule: Q01DX Z (im), vehicle: alkali diluted with saline)?
A: 112 % of control

Q: What about the T/C (dose: 5.0 mg/kg/injection, schedule: Q01DX Z (oral), vehicle: alkali diluted with saline) of the same molecule?
A: 120 % of control

Q: And the T/C (dose: 5.0 mg/kg/injection, schedule: Q01DX Z (sc), vehicle: alkali diluted with saline)?
A: 105 % of control

Q: What about the T/C (dose: 5.0 mg/kg/injection, schedule: Q#A X Z (ip), vehicle: methylcellulose (MC)) of the same molecule?
A: 162 % of control

Q: What about the T/C (dose: 6.0 mg/kg/injection, schedule: Q01DX Z (ip), vehicle: carboxymethylcellulose (CMC)) of the same molecule?
A: 161 % of control

Q: What about the T/C (dose: 6.25 mg/kg/injection, schedule: Q03HX024 (ip), vehicle: carboxymethylcellulose (CMC)) of the same molecule?
A: 116 % of control

Q: And the T/C (dose: 9.0 mg/kg/injection, schedule: Q01DX Z (ip), vehicle: clinical formulation)?
A: 157 % of control

Q: What about the T/C (dose: 10.0 mg/kg/injection, schedule: Q01DX006 (iv), vehicle: alkali diluted with saline) of the same molecule?
A: 106 % of control

Q: And the T/C (dose: 10.0 mg/kg/injection, schedule: Q01DX Z (im), vehicle: alkali diluted with saline)?
A: 159 % of control

Q: And the T/C (dose: 10.0 mg/kg/injection, schedule: Q01DX Z (ip), vehicle: saline)?
A: 167 % of control

Q: What about the T/C (dose: 10.0 mg/kg/injection, schedule: Q01DX Z (oral), vehicle: alkali diluted with saline) of the same molecule?
A: 120 % of control

Q: And the T/C (dose: 10.0 mg/kg/injection, schedule: Q01DX Z (sc), vehicle: alkali diluted with saline)?
A: 159 % of control

Q: What about the T/C (dose: 12.5 mg/kg/injection, schedule: Q03HX024 (ip), vehicle: carboxymethylcellulose (CMC)) of the same molecule?
A: 122 % of control

Q: What about the T/C (dose: 15.0 mg/kg/injection, schedule: Q## X008 (ip), vehicle: alkali diluted with saline) of the same molecule?
A: 114 % of control

Q: What about the T/C (dose: 20.0 mg/kg/injection, schedule: Q01DX006 (iv), vehicle: alkali diluted with saline) of the same molecule?
A: 123 % of control

Q: What about the T/C (dose: 20.0 mg/kg/injection, schedule: Q01DX007 (ip), vehicle: other) of the same molecule?
A: 160 % of control

Q: And the T/C (dose: 20.0 mg/kg/injection, schedule: Q01DX009 (ip), vehicle: carboxymethylcellulose (CMC))?
A: 153 % of control

Q: And the T/C (dose: 20.0 mg/kg/injection, schedule: Q01DX Z (oral), vehicle: alkali diluted with saline)?
A: 115 % of control

Q: What about the T/C (dose: 20.0 mg/kg/injection, schedule: Q#A X Z (ip), vehicle: olive oil, sesame oil, peanut oil) of the same molecule?
A: 116 % of control

Q: What about the T/C (dose: 25.0 mg/kg/injection, schedule: Q04DX003 (ip), vehicle: alkali diluted with saline) of the same molecule?
A: 112 % of control

Q: And the T/C (dose: 25.0 mg/kg/injection, schedule: Q04DX003 (ip), vehicle: carboxymethylcellulose (CMC))?
A: 117 % of control

Q: And the T/C (dose: 25.0 mg/kg/injection, schedule: Q## X003 (ip), vehicle: other)?
A: 106 % of control

Q: What about the T/C (dose: 25.0 mg/kg/injection, schedule: Q## X016 (ip), vehicle: other) of the same molecule?
A: 115 % of control

Q: What about the T/C (dose: 30.0 mg/kg/injection, schedule: Q01DX Z (ip), vehicle: carboxymethylcellulose (CMC)) of the same molecule?
A: 159 % of control

Q: What about the T/C (dose: 30.0 mg/kg/injection, schedule: Q03DX Z (ip), vehicle: methylcellulose (MC)) of the same molecule?
A: 122 % of control

Q: And the T/C (dose: 40.0 mg/kg/injection, schedule: Q01DX007 (ip), vehicle: other)?
A: 163 % of control
